Measured values published in PMC8074941, “Synthesis of cyclotetrapeptide analogues of c-PLAI and evaluation of their antimicrobial properties” (Royal Society Open Science, 2021).
Converted amounts (≈) assume the structure as drawn. Where a SMILES comes first, the peptide text is derived from it.

Key:
[1] = head-to-tail lactamisation of linear tetrapeptide (N-terminal Pro amine + C-terminal Ile acid), HATU (2 equiv), DIPEA (3 equiv); conditions: the molecule shown is the open-chain precursor; 12-membered ring; CH2Cl2 (with ca. 0.2-0.5% DMF); 0.4 mM; 25.0 °C; 1.5 h
[2] = system: T. mentagrophyte; test: microbe, parasite or virus in culture; conditions: 18 h
Method: (§1) Tools and materials were sterilized in an autoclave for 15 min at 121°C. Fungal culture was grown in agar media (Potato Dextrose agar) by picking some fungal colony using an inoculating loop, followed by incubation at 30°C for 24–48 h. Fungal culture was then suspended in liquid media (Potato Dextrose Broth). The suspended fungal culture was then incubated for 24–48 h at 30°C. The suspended fungal culture was then incubated at 30°C for 24 h and standardized equal to 0.5 Mc Farland (2 × 10^8 CFU ml^−1). The culture was diluted into the concentration of 5 × 10^5 CFU ml^−1.
(§2) Six tetrapeptides and six cyclotetrapeptides were dissolved in DMSO 2% with a concentration of 1 µg mL^−1. Each solution was dissolved gradually. Subsequently, 12 sample solutions, ciprofloxacin, nystatin, ketoconazole and DMSO 2% were incubated on a 96-well microplate at 37°C for 18 h. The result was interpreted using a spectrophotometer, with a wavelength of 600 nm. MIC was measured as the percentage of microbial inhibition and cell death.

[3] = system: B. cereus ATCC 11778; test: microbe, parasite or virus in culture; conditions: ATCC 11778, 18 h
Method: as §1, with “Bacterial” for “Fungal”, “(Mueller Hinton” for “(Potato Dextrose”, “bacterial” for “fungal”, “37°C” for “30°C”, “24” for “24–48”, “bacterial” for “fungal culture was then incubated for 24–48 h at 30°C. The suspended fungal”
as §2

[4] = system: K. pneumonia ATCC 2357; test: microbe, parasite or virus in culture; conditions: ATCC 2357, 18 h
Method: as §1, with “Bacterial” for “Fungal”, “(Mueller Hinton” for “(Potato Dextrose”, “bacterial” for “fungal”, “37°C” for “30°C”, “24” for “24–48”, “bacterial” for “fungal culture was then incubated for 24–48 h at 30°C. The suspended fungal”
as §2

[5] = system: S. aureus ATCC 6538; test: microbe, parasite or virus in culture; conditions: ATCC 6538, 18 h
Method: as §1, with “Bacterial” for “Fungal”, “(Mueller Hinton” for “(Potato Dextrose”, “bacterial” for “fungal”, “37°C” for “30°C”, “24” for “24–48”, “bacterial” for “fungal culture was then incubated for 24–48 h at 30°C. The suspended fungal”
as §2

[6] = system: E. coli ATCC 11229; test: microbe, parasite or virus in culture; conditions: ATCC 11229, 18 h
Method: as §1, with “Bacterial” for “Fungal”, “(Mueller Hinton” for “(Potato Dextrose”, “bacterial” for “fungal”, “37°C” for “30°C”, “24” for “24–48”, “bacterial” for “fungal culture was then incubated for 24–48 h at 30°C. The suspended fungal”
as §2

[7] = system: C. albicans ATCC 10231; conditions: ATCC 10231, 18 h
Method: as §1, §2

[8] = system: Staphylococcus aureus; conditions: c-PLAI isolated from marine Pseudomonas sp.; cited from earlier work
Source text: (§3) c-PLAI [cyclo(pro-leu-ala-ile)] is a cyclotetrapeptide that was isolated by Rungprom and co-workers in 2008 from marine Pseudomonas sp., which was associated with the Japanese seaweed Diginea sp.. All the amino acid residues of c-PLAI were reported to be L-configured. […] Later, c-PLAI was successfully synthesized using a convergent solution-phase method. ...

[9] = system: Escherichia coli; conditions: c-PLAI isolated from marine Pseudomonas sp.; cited from earlier work
Source text: as §3

[10] = system: Vibrio anguillarum; conditions: c-PLAI isolated from marine Pseudomonas sp.; cited from earlier work
Source text: as §3

[11] = system: Bacillus subtilis; conditions: c-PLAI isolated from marine Pseudomonas sp.; cited from earlier work
Source text: as §3

[12] = system: Micrococcus luteus; conditions: c-PLAI isolated from marine Pseudomonas sp.; cited from earlier work
Source text: as §3

[13] = system: Microsporum andouinii; conditions: synthetic product of solution-phase synthesis; strain not given; cited from earlier work
Source text: as §3

[14] = system: Trichophyton mentagrophytes; conditions: synthetic product of solution-phase synthesis; strain not given; cited from earlier work
Method: as §3, with “... || The antimicrobial properties of all linear and cyclic tetrapeptides were evaluated (table 3). […] The lack of information regarding the microbial strains used in the previous report led us to the assumption that the use of different strains in the assay could lead to a differen ...” for “...”

[15] = system: Pseudomonas aeruginosa; conditions: synthetic product of solution-phase synthesis; strain not given; cited from earlier work
Method: as §3, with “... || The antimicrobial properties of all linear and cyclic tetrapeptides were evaluated (table 3). […] The lack of information regarding the microbial strains used in the previous report led us to the assumption that the use of different strains in the assay could lead to a differen ...” for “...”

[16] = system: Klebsiella pneumoniae; conditions: synthetic product of solution-phase synthesis; strain not given; cited from earlier work
Method: as §3, with “... || The antimicrobial properties of all linear and cyclic tetrapeptides were evaluated (table 3). […] The lack of information regarding the microbial strains used in the previous report led us to the assumption that the use of different strains in the assay could lead to a differen ...” for “...”

[17] = system: Candida albicans; conditions: synthetic product of solution-phase synthesis; strain not given; cited from earlier work
Method: as §3, with “... || The antimicrobial properties of all linear and cyclic tetrapeptides were evaluated (table 3). […] The lack of information regarding the microbial strains used in the previous report led us to the assumption that the use of different strains in the assay could lead to a differen ...” for “...”

| minimum inhibitory concentration (MIC) T. mentagrophyte [2] [mg/L] | minimum inhibitory concentration (MIC) B. cereus ATCC 11778 [3] [mg/L] | minimum inhibitory concentration (MIC) K. pneumonia ATCC 2357 [4] [mg/L] | minimum inhibitory concentration (MIC) S. aureus ATCC 6538 [5] [mg/L] | minimum inhibitory concentration (MIC) E. coli ATCC 11229 [6] [mg/L] | minimum inhibitory concentration (MIC) C. albicans ATCC 10231 [7] [mg/L] | SMILES | ring closure, isolated yield [1] [%] | other results |
| --- | --- | --- | --- | --- | --- | --- | --- | --- |
|  |  |  |  |  |  | CC[C@H](C)[C@H](NC(=O)[C@H](Cc1ccccc1)NC(=O)[C@H](CC(C)C)NC(=O)[C@@H]1CCCN1)C(=O)O [H-Pro-Leu-Phe-Ile-OH] | 46 |  |
|  |  |  |  |  |  | CC[C@H](C)[C@H](NC(=O)[C@H](Cc1ccccc1)NC(=O)[C@H](CCCCNC(=O)OC(C)(C)C)NC(=O)[C@@H]1CCCN1)C(=O)O [H-Pro-Lys(Boc)-Phe-Ile-OH] | 50 |  |
| 500 (≈ 1140 µM) | 250 (≈ 570 µM) | 500 (≈ 1140 µM) | 500 (≈ 1140 µM) | 500 (≈ 1140 µM) | >1000 | CC[C@H](C)[C@H](NC(=O)[C@@H]1CCCN1C(=O)[C@H](CC(C)C)NC(=O)[C@@H]1CCCN1)C(=O)O [PLPI] (H-PLPI-OH) |  |  |
| 62.50 (≈ 148 µM) | 125 (≈ 296 µM) | 250 (≈ 592 µM) | 500 (≈ 1180 µM) | 125 (≈ 296 µM) | 500 (≈ 1180 µM) | CC[C@H](C)[C@@H]1NC(=O)[C@H](C(C)C)NC(=O)[C@H](CC(C)C)NC(=O)[C@@H]2CCCN2C1=O [c-PLVI, cyclo-(pro-leu-val-ile)] (cyclo(PLVI)) |  |  |
| 125 (≈ 305 µM) | 125 (≈ 305 µM) | 250 (≈ 610 µM) | 125 (≈ 305 µM) | 62.50 (≈ 153 µM) | 125 (≈ 305 µM) | CC[C@H](C)[C@@H]1NC(=O)[C@H](C)NC(=O)[C@H](CCCCN)NC(=O)[C@@H]2CCCN2C1=O [c-PKAI, cyclo-(pro-lys-ala-ile)] (cyclo(PKAI)) |  |  |
|  |  |  |  |  |  | CC[C@H](C)[C@H](NC(=O)[C@@H](NC(=O)[C@H](CC(C)C)NC(=O)[C@@H]1CCCN1)C(C)C)C(=O)O [H-Pro-Leu-Val-Ile-OH] | 52 |  |
|  |  |  |  |  |  | CC[C@H](C)[C@H](NC(=O)[C@H](C)NC(=O)[C@H](CCCCNC(=O)OC(C)(C)C)NC(=O)[C@@H]1CCCN1)C(=O)O [H-Pro-Lys(Boc)-Ala-Ile-OH] | 43 |  |
| 500 (≈ 993 µM) | 250 (≈ 496 µM) | 500 (≈ 993 µM) | 250 (≈ 496 µM) | 250 (≈ 496 µM) | 250 (≈ 496 µM) | CC[C@H](C)[C@H](NC(=O)[C@H](Cc1ccccc1)NC(=O)[C@H](CCCCN)NC(=O)[C@@H]1CCCN1)C(=O)O [PKFI] (H-PKFI-OH) |  |  |
|  |  |  |  |  |  | CC[C@H](C)[C@H](NC(=O)[C@H](C)NC(=O)[C@H](CC(C)C)NC(=O)[C@@H]1CCCN1)C(=O)O [H-Pro-Leu-Ala-Ile-OH] | 70 |  |
|  |  |  |  |  |  | CC[C@H](C)[C@H](NC(=O)[C@@H]1CCCN1C(=O)[C@H](CC(C)C)NC(=O)[C@@H]1CCCN1)C(=O)O [H-Pro-Leu-Pro-Ile-OH] | 53 |  |

| SMILES | minimum inhibitory concentration (MIC) T. mentagrophyte [2] [mg/L] | minimum inhibitory concentration (MIC) B. cereus ATCC 11778 [3] [mg/L] | minimum inhibitory concentration (MIC) K. pneumonia ATCC 2357 [4] [mg/L] | minimum inhibitory concentration (MIC) S. aureus ATCC 6538 [5] [mg/L] | minimum inhibitory concentration (MIC) E. coli ATCC 11229 [6] [mg/L] | minimum inhibitory concentration (MIC) C. albicans ATCC 10231 [7] [mg/L] | ring closure, isolated yield [1] [%] | other results |
| --- | --- | --- | --- | --- | --- | --- | --- | --- |
| CC[C@H](C)[C@@H]1NC(=O)[C@H](C)NC(=O)[C@H](CC(C)C)NC(=O)[C@@H]2CCCN2C1=O [c-PLAI, cyclo(pro-leu-ala-ile)] (cyclo(PLAI)) | 125 (≈ 317 µM) | 125 (≈ 317 µM) | 500 (≈ 1270 µM) | >1000 | 250 (≈ 634 µM) | >1000 |  | antibacterial activity against Staphylococcus aureus [8]: inactive; antibacterial activity against Escherichia coli [9]: inactive; antibacterial activity against Vibrio anguillarum [10]: inactive; antibacterial activity against Bacillus subtilis [11]: inactive; antibacterial activity against Micrococcus luteus [12]: inactive; minimum inhibitory concentration (MIC) Microsporum andouinii [13]: 6 mg/L (≈ 15.2 µM); minimum inhibitory concentration (MIC) Trichophyton mentagrophytes [14]: 6 mg/L (≈ 15.2 µM); minimum inhibitory concentration (MIC) Pseudomonas aeruginosa [15]: 6 mg/L (≈ 15.2 µM); minimum inhibitory concentration (MIC) Klebsiella pneumoniae [16]: 6 mg/L (≈ 15.2 µM); minimum inhibitory concentration (MIC) Candida albicans [17]: 6 mg/L (≈ 15.2 µM) |
